Source: patent publication US8299077B2 (Roche Palo Alto LLC, priority 2009, dated 2012)

Tested on: B cell receptor-mediated activation of B cells in human blood (CD69 expression)
Assay: Inhibition of B cell activation in whole blood measured by CD69 expression
Type: cell-based
Conditions: anti-IgM stimulation, 20 h, 50% decrease of CD69-positive cells that are also CD20-positive
Procedure, shortened: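 Healthy-donor human whole blood (heparin) preincubated with compound (nine-point, three-fold dilutions) for 30 min at 37 °C, then stimulated with goat F(ab′)2 anti-human IgM (50 μg/ml final) for 20 h. CD69-positive B cells (CD20 gating) measured by flow cytometry as percent positive; IC50 from dose-response fit.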

Row | Structure (SMILES) | IC50
1 | Cn1cc(-c2cccc(-n3ccc4cc(C(C)(C)C)cc(F)c4c3=O)c2CO)cc(Nc2ccc(C(=O)N3CCOCC3)cn2)c1=O [Example I-63, 6-tert-Butyl-8-fluoro-2-(2-hydroxymethyl-3-{1-methyl-5-[5-(morpholine-4-carbonyl)-pyridin-2-ylamino]-6-oxo-1,6-dihydro-pyridin-3-yl}-phenyl)-2H-isoquinolin-1-one] | 16 nM
2 | CCC(O)(CC)c1cc(F)c2c(=O)n(-c3cccc(-c4cc(Nc5ccc(N6CCC(C)(O)CC6)cn5)c(=O)n(C)c4)c3CO)ccc2c1 [Example I-64, 6-(1-Ethyl-1-hydroxy-propyl)-8-fluoro-2-{2-hydroxymethyl-3-[5-(4-hydroxy-4-methyl-3,4,5,6-tetrahydro-2H-[1,3′]bipyridinyl-6′-ylamino)-1-methyl-6-oxo-1,6-dihydro-pyridin-3-yl]-phenyl}-2H-isoquinolin-1-one] | 27 nM
3 | Cn1cc(-c2cccc(-n3ccc4cc(C(C)(C)C#N)cc(F)c4c3=O)c2CO)cc(Nc2ccc(OCCO)cn2)c1=O [Example I-65, 2-[8-Fluoro-2-(3-{5-[5-(2-hydroxy-ethoxy)-pyridin-2-ylamino]-1-methyl-6-oxo-1,6-dihydro-pyridin-3-yl}-2-hydroxymethyl-phenyl)-1-oxo-1,2-dihydro-isoquinolin-6-yl]-2-methyl-propionitrile] | 19 nM
4 | CN(C)C(=O)C(C)(C)c1ccc(Nc2cc(-c3cccc(-n4ccc5cc(C6CC6)cc(F)c5c4=O)c3CO)cn(C)c2=O)nc1 [Example I-70, 2-(6-{5-[3-(6-Cyclopropyl-8-fluoro-1-oxo-1H-isoquinolin-2-yl)-2-hydroxymethyl-phenyl]-1-methyl-2-oxo-1,2-dihydro-pyridin-3-ylamino}-pyridin-3-yl)-N,N-dimethyl-isobutyramide] | 22 nM
5 | CN1CC(Oc2ccc(Nc3cc(-c4cccc(-n5ccc6cc(C7CC7)cc(F)c6c5=O)c4CO)cn(C)c3=O)nc2)C1 [Example I-71, 6-Cyclopropyl-8-fluoro-2-(2-hydroxymethyl-3-{1-methyl-5-[5-(1-methyl-azetidin-3-yloxy)-pyridin-2-ylamino]-6-oxo-1,6-dihydro-pyridin-3-yl}-phenyl)-2H-isoquinolin-1-one] | 39 nM
6 | CN1CCN(Cc2ccc(Nc3cc(-c4cccc(-n5ccc6cc(C7CC7)cc(F)c6c5=O)c4CO)cn(C)c3=O)nc2)CC1 [Example I-73, 6-Cyclopropyl-8-fluoro-2-(2-hydroxymethyl-3-{1-methyl-5-[5-(4-methyl-piperazin-1-ylmethyl)-pyridin-2-ylamino]-6-oxo-1,6-dihydro-pyridin-3-yl}-phenyl)-2H-isoquinolin-1-one] | 24 nM
7 | COCCNCc1ccc(Nc2cc(-c3cccc(-n4ccc5cc(C6CC6)cc(F)c5c4=O)c3CO)cn(C)c2=O)nc1 [Example I-75, 6-Cyclopropyl-8-fluoro-2-[2-hydroxymethyl-3-(5-{5-[(2-methoxy-ethylamino)-methyl]-pyridin-2-ylamino}-1-methyl-6-oxo-1,6-dihydro-pyridin-3-yl)-phenyl]-2H-isoquinolin-1-one] | 37 nM
8 | Cn1cc(-c2cccc(-n3ccc4cc(C5CC5)cc(F)c4c3=O)c2CO)cc(Nc2ccc(OCCO)cn2)c1=O [Example I-79, 6-Cyclopropyl-8-fluoro-2-(3-{5-[5-(2-hydroxy-ethoxy)-pyridin-2-ylamino]-1-methyl-6-oxo-1,6-dihydro-pyridin-3-yl}-2-hydroxymethyl-phenyl)-2H-isoquinolin-1-one] | 93 nM

Next, values leading:

Row | IC50 | Structure (SMILES)
9 | 51 nM | Cn1cc(-c2cccc(-n3ccc4cc(C5(C)CC5)cc(F)c4c3=O)c2CO)cc(Nc2ccc(S(C)(=O)=O)cn2)c1=O [Example I-61, 8-Fluoro-2-{2-hydroxymethyl-3-[5-(5-methanesulfonyl-pyridin-2-ylamino)-1-methyl-6-oxo-1,6-dihydro-pyridin-3-yl]-phenyl}-6-(1-methyl-cyclopropyl)-2H-isoquinolin-1-one]
10 | 92 nM | Cn1cc(-c2cccc(-n3ccc4cc(C5CC5)cc(F)c4c3=O)c2CO)cc(Nc2ccc(S(C)(=O)=O)cn2)c1=O [Example I-62, 6-Cyclopropyl-8-fluoro-2-{2-hydroxymethyl-3-[5-(5-methanesulfonyl-pyridin-2-ylamino)-1-methyl-6-oxo-1,6-dihydro-pyridin-3-yl]-phenyl}-2H-isoquinolin-1-one]
11 | 213 nM | Cn1cc(-c2cccc(-n3ccc4cc(C5CC5)cc(F)c4c3=O)c2CO)cc(Nc2ccc(C(C)(C)C(=O)O)cn2)c1=O [Example I-68, 2-(6-{5-[3-(6-Cyclopropyl-8-fluoro-1-oxo-1H-isoquinolin-2-yl)-2-hydroxymethyl-phenyl]-1-methyl-2-oxo-1,2-dihydro-pyridin-3-ylamino}-pyridin-3-yl)-2-methyl-propionic acid]
12 | 33 nM | CNC(=O)C(C)(C)c1ccc(Nc2cc(-c3cccc(-n4ccc5cc(C6CC6)cc(F)c5c4=O)c3CO)cn(C)c2=O)nc1 [Example I-69, 2-(6-{5-[3-(6-Cyclopropyl-8-fluoro-1-oxo-1H-isoquinolin-2-yl)-2-hydroxymethyl-phenyl]-1-methyl-2-oxo-1,2-dihydro-pyridin-3-ylamino}-pyridin-3-yl)-N-methyl-isobutyramide]
13 | 20 nM | Cn1cc(-c2cccc(-n3ccc4cc(C5CC5)cc(F)c4c3=O)c2CO)cc(Nc2ccc(C(C)(C)O)cn2)c1=O [Example I-72, 6-Cyclopropyl-8-fluoro-2-(2-hydroxymethyl-3-{5-[5-(1-hydroxy-1-methyl-ethyl)-pyridin-2-ylamino]-1-methyl-6-oxo-1,6-dihydro-pyridin-3-yl}-phenyl)-2H-isoquinolin-1-one]
14 | 29 nM | CC(O)c1ccc(Nc2cc(-c3cccc(-n4ccc5cc(C6CC6)cc(F)c5c4=O)c3CO)cn(C)c2=O)nc1 (centres unmarked) [Example I-74, 6-Cyclopropyl-8-fluoro-2-(3-{5-[5-(1-hydroxy-ethyl)-pyridin-2-ylamino]-1-methyl-6-oxo-1,6-dihydro-pyridin-3-yl}-2-hydroxymethyl-phenyl)-2H-isoquinolin-1-one]
15 | 40 nM | Cn1cc(-c2cccc(-n3ccc4cc(C5CC5)cc(F)c4c3=O)c2CO)cc(Nc2ccc(C(C)(C)N)cn2)c1=O [Example I-76, 2-(3-{5-[5-(1-Amino-1-methyl-ethyl)-pyridin-2-ylamino]-1-methyl-6-oxo-1,6-dihydro-pyridin-3-yl}-2-hydroxymethyl-phenyl)-6-cyclopropyl-8-fluoro-2H-isoquinolin-1-one]
16 | 20 nM | CCNCc1ccc(Nc2cc(-c3cccc(-n4ccc5cc(C6CC6)cc(F)c5c4=O)c3CO)cn(C)c2=O)nc1 [Example I-77, 6-Cyclopropyl-2-{3-[5-(5-ethylaminomethyl-pyridin-2-ylamino)-1-methyl-6-oxo-1,6-dihydro-pyridin-3-yl]-2-hydroxymethyl-phenyl}-8-fluoro-2H-isoquinolin-1-one]
17 | 20 nM | CC(C)NCc1ccc(Nc2cc(-c3cccc(-n4ccc5cc(C6CC6)cc(F)c5c4=O)c3CO)cn(C)c2=O)nc1 [Example I-78, 6-Cyclopropyl-8-fluoro-2-(2-hydroxymethyl-3-{5-[5-(isopropylamino-methyl)-pyridin-2-ylamino]-1-methyl-6-oxo-1,6-dihydro-pyridin-3-yl}-phenyl)-2H-isoquinolin-1-one]
